The target of the experiment is T1, system xc− (obligate cystine-glutamate transporter) (Homo sapiens, UniProt Q9UPY5).
T1 sequence (Q9UPY5 1-501): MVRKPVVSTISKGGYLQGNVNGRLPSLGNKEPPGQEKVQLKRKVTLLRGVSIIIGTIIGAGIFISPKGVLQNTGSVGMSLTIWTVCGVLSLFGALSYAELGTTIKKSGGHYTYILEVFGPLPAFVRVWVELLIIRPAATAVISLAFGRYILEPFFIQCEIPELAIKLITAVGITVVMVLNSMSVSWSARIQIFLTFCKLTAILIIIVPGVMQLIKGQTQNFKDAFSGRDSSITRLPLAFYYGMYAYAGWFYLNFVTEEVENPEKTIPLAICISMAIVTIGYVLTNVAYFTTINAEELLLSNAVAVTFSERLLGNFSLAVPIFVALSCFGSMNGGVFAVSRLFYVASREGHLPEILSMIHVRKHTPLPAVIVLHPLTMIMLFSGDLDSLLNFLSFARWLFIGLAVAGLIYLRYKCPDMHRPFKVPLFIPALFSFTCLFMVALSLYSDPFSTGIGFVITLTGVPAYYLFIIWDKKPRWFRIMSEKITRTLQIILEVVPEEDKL
T1 sequence (P08195 2-529 partner): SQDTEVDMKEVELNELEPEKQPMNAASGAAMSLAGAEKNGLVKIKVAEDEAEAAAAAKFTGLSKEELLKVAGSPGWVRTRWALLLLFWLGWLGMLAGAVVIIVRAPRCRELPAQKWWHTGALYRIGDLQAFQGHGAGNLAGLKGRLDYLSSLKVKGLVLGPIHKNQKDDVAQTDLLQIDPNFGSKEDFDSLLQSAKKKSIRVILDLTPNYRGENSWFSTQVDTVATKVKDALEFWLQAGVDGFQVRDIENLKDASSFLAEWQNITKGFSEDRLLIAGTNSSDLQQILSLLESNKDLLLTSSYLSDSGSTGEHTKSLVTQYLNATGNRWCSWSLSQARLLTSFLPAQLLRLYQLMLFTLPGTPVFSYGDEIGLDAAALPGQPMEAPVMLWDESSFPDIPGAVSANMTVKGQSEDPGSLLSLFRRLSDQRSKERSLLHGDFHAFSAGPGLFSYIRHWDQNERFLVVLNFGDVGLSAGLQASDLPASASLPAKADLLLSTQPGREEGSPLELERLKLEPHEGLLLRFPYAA
Description: inhibition of 3H-L-glutamate uptake. It is filed as cell-based. The conditions noted are these: SNB-19, read-out: Uptake ^a Sxc^-.

SMILES strings stand for the structures.

Take `N[C@@H](CSSC[C@H](N)C(=O)O)C(=O)O` [L-Cystine]: the activity at 500 µM worked out at 22 ± 3%.

The values above are taken from publication PMC3159025 (2011).
